Data reported in PMC11566078, “Bactericidal activities and biochemical features of 16 antimicrobial peptides against bovine-mastitis causative pathogens” (Veterinary Research, 2024).
In brackets after ≈: the same amount, converted by molar mass. Read-outs that look alike come from different tables or passages of the source.

Columns and labels:
Assay type in all cases: cell-based
[1] = test system: Staphylococcus haemolyticus; test: MIC against field isolate from milk with high SCC; conditions: Staphylococcus haemolyticus, read-out: Minimal inhibitory concentration, Staphylococcus haemolyticus
Experimental: (§1) All plates were cultivated aerobically.
(§2) Experiments were conducted in triplicate.

[2] = test system: Staphylococcus aureus ATCC 6538; test: microbe, parasite or virus in culture; conditions: Staphylococcus aureus, ATCC6538; ATCC 6538; MH broth; WST colourimetric, 37 °C 6 h; triplicate; read-out: Minimal inhibitory concentration, Staphylococcus aureus
Experimental: (§3) The standard bacterial strains used for antimicrobial activity assays include Staphylococcus aureus ATCC (American Type Culture Collection, Manassas, VA, USA) 6538, Bacillus cereus ATCC 10876, Enterococcus faecalis ATCC 29212, Streptococcus […] 27956, Streptococcus dysgalactiae ATCC 27957, Streptococcus equi subsp. zooepidemicus ATCC 43079, Escherichia coli ATCC 25922, and Pseudomonas aeruginosa ATCC 27853. Most bacterial strains were cultured in LB medium except for E. faecalis and streptococci, which were cultivated in brain heart infusion (BHI) broth (BD Bioscience). […] Experiments were conducted in triplicate.

[3] = test system: Escherichia coli ATCC 25922; test: microbe, parasite or virus in culture; conditions: Escherichia coli, ATCC25922, 8 h, MH broth, WST colourimetric, 1.5 × 10^5 cells/well, 37 °C 6 h + 2 h reagent, A450, triplicate, read-out: Minimal inhibitory concentration, Escherichia coli
Experimental: as §3

[4] = test system: Enterococcus faecalis ATCC 29212; test: microbe, parasite or virus in culture; conditions: Enterococcus faecalis, ATCC29212; ATCC 29212; BHI broth; WST colourimetric, 37 °C 6 h; triplicate; read-out: Minimal inhibitory concentration, Enterococcus faecalis
Experimental: as §3

[5] = test system: Streptococcus agalactiae ATCC 27956; test: microbe, parasite or virus in culture; conditions: Streptococcus agalactiae, ATCC27956; ATCC 27956; BHI broth; WST colourimetric, 37 °C 6 h; triplicate; read-out: Minimal inhibitory concentration, Streptococcus agalactiae
Experimental: as §3

[6] = test system: Streptococcus dysgalactiae ATCC 27957; test: microbe, parasite or virus in culture; conditions: Streptococcus dysgalactiae, ATCC27957; ATCC 27957; BHI broth; WST colourimetric, 37 °C 6 h; triplicate; read-out: Minimal inhibitory concentration, Streptococcus dysgalactiae
Experimental: as §3

[7] = test system: Pseudomonas aeruginosa ATCC 27853; test: microbe, parasite or virus in culture; conditions: Pseudomonas aeruginosa, ATCC27853; ATCC 27853; CAMHB; WST colourimetric, 37 °C 6 h; triplicate; read-out: Minimal inhibitory concentration, Pseudomonas aeruginosa
Experimental: as §3

[8] = test system: Bacillus cereus ATCC 10876; test: microbe, parasite or virus in culture; conditions: Bacillus cereus, ATCC10876; ATCC 10876; MH broth; WST colourimetric, 37 °C 6 h; triplicate; read-out: Minimal inhibitory concentration, Bacillus cereus
Experimental: as §3

[9] = test system: Streptococcus equi subsp. zooepidemicus ATCC 43079; test: microbe, parasite or virus in culture; conditions: Streptococcus equi, ATCC43079; ATCC 43079; BHI broth; WST colourimetric, 37 °C 6 h; triplicate; read-out: Minimal inhibitory concentration, Streptococcus equi subsp. zooepidemicus
Experimental: as §3

Aeromonas hydrophila = test: microbe, parasite or virus in culture; conditions: Aeromonas hydrophila; Gram-negative field isolate from milk; BHI broth; WST colourimetric, 37 °C 6 h; triplicate; read-out: Minimal inhibitory concentration, Aeromonas hydrophila
Experimental: as §1, §2

Corynebacterium simulans = test: microbe, parasite or virus in culture; conditions: Corynebacterium simulans; field isolate from milk; BHI broth; WST colourimetric, 37 °C 6 h; triplicate; read-out: Minimal inhibitory concentration, Corynebacterium simulans
Experimental: as §1, §2

[10] = test system: Staphylococcus chromogenes; test: microbe, parasite or virus in culture; conditions: Staphylococcus chromogenes, read-out: Minimal inhibitory concentration, Staphylococcus chromogenes
Experimental: as §1, §2

[11] = test system: Staphylococcus epidermidis; test: microbe, parasite or virus in culture; conditions: Staphylococcus epidermidis; field isolate from milk; WST colourimetric, 37 °C 6 h; triplicate; read-out: Minimal inhibitory concentration, Staphylococcus epidermidis
Experimental: as §1, §2

Staphylococcus xylosus = test: microbe, parasite or virus in culture; conditions: Staphylococcus xylosus, read-out: Minimal inhibitory concentration, Staphylococcus xylosus
Experimental: as §1, §2

[12] = test system: Glutamicibacter halophytocola; test: microbe, parasite or virus in culture; conditions: Glutamicibacter halophytocola; field isolate from milk; BHI broth; WST colourimetric, 37 °C 6 h; triplicate; read-out: Minimal inhibitory concentration, Glutamicibacter halophytocola
Experimental: as §1, §2

Streptococcus uberis = test: microbe, parasite or virus in culture; conditions: Streptococcus uberis; field isolate from milk; BHI broth; WST colourimetric, 37 °C 6 h; triplicate; read-out: Minimal inhibitory concentration, Streptococcus uberis
Experimental: as §1, §2

[13] = field isolate from milk, WST colourimetric, 37 °C 6 h, triplicate
[14] = value in brackets, Additional file 6, field isolate

## CC1(C)S[C@@H]2[C@H](NC(=O)[C@H](N)c3ccccc3)C(=O)N2[C@H]1C(=O)O [Ampicillin, reference compound]
[1]; [13]
  MIC: 10 µg/mL
[1]; [14]
  MIC: 0.0286 µM
[2]
  MIC: 2 µg/mL (≈ 5.72 µM)
[3]
  MIC: 5 µg/mL
[4]
  MIC: 10 µg/mL (≈ 28.6 µM)
[5]
  MIC: 4 µg/mL (≈ 11.4 µM)
[6]
  MIC: 2 µg/mL (≈ 5.72 µM)
[7]
  MIC: > 640 µg/mL
[8]
  MIC: 80 µg/mL (≈ 229 µM)
[9]
  MIC: 2 µg/mL (≈ 5.72 µM)
Aeromonas hydrophila
  MIC: > 240 µg/mL
Corynebacterium simulans
  MIC: > 240 µg/mL
[10]; [13]
  MIC: 5 µg/mL
[10]; [14]
  MIC: 0.0143 µM
[11]
  MIC: 5 µg/mL (≈ 14.3 µM)
Staphylococcus xylosus; [13]
  MIC: 5 µg/mL
Staphylococcus xylosus; [14]
  MIC: 0.0143 µM
[12]
  MIC: 15 µg/mL (≈ 42.9 µM)
Streptococcus uberis
  MIC: > 240 µg/mL

## O=C(N[C@H](CO)[C@H](O)c1ccc([N+](=O)[O-])cc1)C(Cl)Cl [Chloramphenicol, reference compound]
[1]; [13]
  MIC: 10 µg/mL
[1]; [14]
  MIC: 0.031 µM
[2]
  MIC: 8 µg/mL (≈ 24.8 µM)
[3]
  MIC: 3 µg/mL
[4]
  MIC: 10 µg/mL (≈ 30.9 µM)
[5]
  MIC: 5 µg/mL (≈ 15.5 µM)
[6]
  MIC: 4 µg/mL (≈ 12.4 µM)
[7]
  MIC: 80 µg/mL (≈ 248 µM)
[8]
  MIC: 10 µg/mL (≈ 30.9 µM)
[9]
  MIC: 5 µg/mL (≈ 15.5 µM)
Aeromonas hydrophila
  MIC: 5 µg/mL (≈ 15.5 µM)
Corynebacterium simulans
  MIC: 8 µg/mL (≈ 24.8 µM)
[10]; [13]
  MIC: 18 µg/mL
[10]; [14]
  MIC: 0.0558 µM
[11]
  MIC: 5 µg/mL (≈ 15.5 µM)
Staphylococcus xylosus; [13]
  MIC: 8 µg/mL
Staphylococcus xylosus; [14]
  MIC: 0.0248 µM
[12]
  MIC: 3 µg/mL (≈ 9.28 µM)
Streptococcus uberis
  MIC: 50 µg/mL (≈ 155 µM)
